# Experimental data published in article PMC5818060 (Journal of Cell Science, 2018).
# Ends that are not written are not given here. Peptide text beside a SMILES is read from it. * marks the point of attachment. Biotin = O=C1N[C@H]2[C@H](CS[C@H]2CCCCC(=O)*)N1
# Legend:
# [1] = target: T1, His-DDX3X^414-582 (Homo sapiens, UniProt O00571); assay: Direct-binding ELISA of biotinylated CK1 peptides on coated His-DDX3X^414-582; conditions: 1 µg/well biotinylated peptide, 2.5 h, room temperature; HRP-streptavidin/ABTS, 405 nm; data normalized to δ-141 = 100%; n=3
# T1 construct: contained 10 µM His-DDX3X^414-582; His; made in house; host or cells: E. coli Rosetta2 (pET28a)
# Text: According to the amino acid sequences of the N-terminal and the kinase domain of human CK1δ (UniProt entry P48730), 30 CK1δ-derived peptides were generated. In order to investigate the effects of sequence-specific differences in the sequence of CK1ε (UniProt entry P49674) compared with CK1δ, seven additional CK1ε-derived peptides were generated (Fig. S2). Each peptide consists of 15 amino acids with the first and last five amino acids always overlapping the previous and the following peptide, respectively. At the N-terminus the peptides were coupled to biotin via a four amino acid spacer sequence (SGSG). For peptide position and sequence information see Fig. S2. All peptides were pre-dissolved in DMSO (final concentration of 12.5% DMSO in the peptide stock).
# His-DDX3X^414-582 protein fragment was coated onto 96-well Nunc MaxiSorp plates (NUNC, Denmark) at a final concentration of 0.01 µg/µl in 100 mM sodium carbonate buffer (pH 9.6) at 4°C overnight. Unspecific binding sites were blocked with 5% FCS in PBS. Biotinylated CK1δ- and CK1ε-derived peptides (1 µg/well) were added and incubated for 2.5 h at room temperature. DMSO (0.35%) and water were used as negative controls. Detection of the bound biotinylated peptides was performed by incubation with HRP-streptavidin (1:8000 in 0.5% FCS in PBS). Finally, plates were incubated with ABTS detection reagent [50 mM potassium phosphate buffer, pH 5.7, 5% ABTS solution (1 mg/ml), 0.05% H2O2]. Absorption was measured at 405 nm after incubation for 40 min.
# [2] = tested on: endogenous CK1 / CK1 sensor in HEK293T cells; assay: CK1 FRET biosensor, microplate reader FRET/CFP ratio; type: cell-based, human; conditions: HEK293T with CK1 sensor; for effect of transfected peptide on FRET/CFP ratio (endogenous CK1 activity): peptide transfected (Metafectene), analyzed 1.5 h after peptide transfection, n=3; for size of reduction of CK1 biosensor activity relative to CK1-specific small-molecule inhibitors or DDX3X siRNA: transfected peptide
# Experimental: HEK293T cells were seeded at a density of 20,000 cells/well on 96-well black microplates (PS, μClear, clear bottom, chimney well, Greiner No. 655090). Transfection was performed as described above. Unless indicated otherwise, the respective cell populations were transfected with 50-100 ng CK1 FRET biosensor, 100 ng regulator (i.e. N-Flag DDX3X) and 1-10 ng kinase (i.e. N-Flag CK1ε). Either empty pCS2 N-Flag vector or luciferase were used to transfect the same amount of DNA in every well. Generally, the different samples were run in triplicate for each individual experiment. Owing to the varying values for the FRET/CFP ratios based on transfection efficiency, cell density and the time point of analysis, we always set the FRET/CFP ratio of cells only transfected with the CK1 sensor to 1 in order to compare individual experiments. Importantly, the individual figures with the CK1 sensor represent only experiments performed on the same 96-well plate with the same cell density, transfection efficiency and time point.
# Where applicable, the small-molecule CK1 inhibitor D4476 (BioVision) was added to the cells 2-4 h prior to the analysis. For each triplicate the respective volume of D4476 (in DMSO) was added together with 1 μl Fugene HD (Promega) to 60 μl serum-free medium. The solution was mixed, incubated for 15 min and added to the cells. […] In the corresponding controls an equal amount of DMSO instead of the inhibitor was added to the medium. Analysis was performed 48-60 h after transfection on an Infinite M1000 PRO microplate reader (Tecan) by exciting CFP with a wavelength of 433 nm and measuring the resulting emission at 460-600 nm in 2 nm increments. Fluorometric spectra were background subtracted with spectra recorded from wells with non-transfected cells. Resulting FRET/CFP ratios were calculated by dividing the intensity values at the respective peaks (478 nm for CFP, 528 nm for YFP) and analyzed essentially as described ([Fritz et al., 2013]). Where indicated, CK1δ/ε-derived peptides were transfected into cells using Metafectene (Biontex) 1 hour before measurements.
# [3] = target: T1, His-DDX3X^414-582; assay: Fluorescence thermal shift (FTS) assay; type: binding; conditions: 20 µM peptide, 10 µM His-DDX3X^414-582, 50 mM HEPES pH 8, SYPRO-Orange
# Experimental: FTS reactions were performed in a total volume of 20 µl in 50 mM HEPES (pH 8) and contained 10 µM His-DDX3X^414-582, a final concentration of 20 µM of each indicated CK1δ- or CK1ε-derived peptide, as well as 10×SYPRO-Orange (Invitrogen). DMSO (0.35%) and water were used as controls. Measurements were performed in a LightCycler 480 device for real-time PCR (Roche) according to the manufacturer's instructions. Respective protein melting temperatures were calculated using the protein-melting evaluation software supplied by Roche.
# [4] = tested on: DDX3X-stimulated CK1ε (CK1εΔC); assay: In vitro radioactive kinase assay, DDX3X-stimulated CK1ε activity; type: biochemical, human; conditions: 0.3 µM peptide; recombinant DDX3X and CK1εΔC; CK1εΔC alone set to 1; n=3
# Experimental: (§1) Kinase assays were carried out essentially as described ([Cruciat et al., 2013]). For kinase assays, full-length DDX3X protein was expressed and purified from HEK293T cells as described for the ATPase assay. Deletion constructs were purified from E. coli. The eluted proteins were visualized using Coomassie Blue and the intensity of the protein bands was measured using ImageJ. The amounts used for kinase assays were estimated based on this staining. Where indicated, dsRNA was premixed with proteins at room temperature (RT) for 15 min before subjecting samples to radioactive kinase assays. The CK1 substrate peptide […] for the kinase assay and samples was analyzed using p81 phosphocellulose (Biomol) as described ([Zhai et al., 1992]). 0.3 µM CK1δ/ε-derived and control peptides were used ([Schacherl et al., 2015]). For mass spectrometric analyses DDX3X helicase core (His-DDX3X^168-582) as well as the C-terminal helicase domain (His-DDX3X^414-582) were in vitro phosphorylated by CK1ε. Also, reactions without addition of kinase were performed and analyzed in order to correct for false-positive results. Mass spectrometry data acquisition and analysis of trypsin-digested samples were performed at the Core Unit Mass Spectrometry and Proteomics (Ulm University) essentially as described in [Meng et al. (2016)].
# [5] = tested on: CK1ε; assay: In vitro radioactive kinase assay, CK1ε activity itself (no DDX3X stimulation); type: biochemical, human; conditions: 0.3 µM peptide; n=3
# Experimental: as §1
# [6] = tested on: DDX3X^414-582 (C-terminal helicase domain); assay: Biolayer interferometry (BLItz); type: binding, human; conditions: biotin-peptide 100 µM loaded on streptavidin chip; DDX3X^414-582 250 µM; 50 mM Tris-HCl pH 7.5, 10 mM NaCl; 60 s association/dissociation; three recordings
# Experimental: Biolayer interferometry was measured on the BLItz system (Pall ForteBIO LLC). High Precision Streptavidin biosensor chips were loaded three times with 100 µM biotin-coupled CK1 peptides in 50 mM Tris-HCl (pH 7.5), 10 mM NaCl for 30 s, followed by a step to block free biotin binding sites with 10 µM biocytin. Association and dissociation times of DDX3X^414-582 (250 µM) were fixed at 60 s. Binding and dissociation curves were recorded three times.
# T1 sequence (O00571 414-582): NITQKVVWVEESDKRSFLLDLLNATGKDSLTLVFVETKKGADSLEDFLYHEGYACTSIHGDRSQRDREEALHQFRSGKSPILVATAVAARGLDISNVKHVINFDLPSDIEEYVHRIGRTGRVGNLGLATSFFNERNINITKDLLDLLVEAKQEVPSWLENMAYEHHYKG
Binding to His-DDX3X^414-582 (ELISA) [1],"Tm shift / binding by FTS, in words [3]",effect of peptide on CK1ε kinase activity itself [5],binding to C-terminal helicase domain of DDX3X (BLItz) [6],Molecule,effect of transfected peptide on FRET/CFP ratio (endogenous CK1 activity) [2],effect of peptide on DDX3X stimulation of CK1ε kinase activity [4],size of reduction of CK1 biosensor activity relative to CK1-specific small-molecule inhibitors or DDX3X siRNA [2]
non-binding,did not cause Tm shifts,,,biotin-SGSG-APPTPLTPTSHTANT [δ-341],"but not ε-1 or the negative control peptide δ-341, reduced the FRET/CFP ratio",,
to a lesser extent,clearly demonstrated,without affecting kinase activity itself,,ε-41: CK1ε-derived 15mer peptide (Biotin-SGSGCVKTKHPQLHIESKF),reduced the FRET/CFP ratio,impaired the stimulation of CK1ε kinase activity,less pronounced
strongest binding,,,,ε-61: CK1ε-derived 15mer peptide (Biotin-SGSGGGVGIPSIKWCGAEG),,,
showed no binding,did not cause Tm shifts,,,"δ-101: CK1δ-derived 15mer peptide, negative control (Biotin-SGSGSLKTVLLLADQMISR)",,did not interfere with the DDX3X stimulation,
to a lesser extent,clearly demonstrated,without affecting kinase activity itself,no binding,CC[C@H](C)[C@H](NC(=O)[C@H](CCCCN)NC(=O)[C@H](CO)NC(=O)[C@H](CCC(=O)O)NC(=O)[C@@H](NC(=O)[C@H](Cc1c[nH]cn1)NC(=O)[C@H](CC(C)C)NC(=O)[C@H](CCC(N)=O)NC(=O)[C@@H]1CCCN1C(=O)[C@H](Cc1c[nH]cn1)NC(=O)[C@H](CCCCN)NC(=O)[C@@H](NC(=O)[C@H](CCCCN)NC(=O)[C@@H](NC(=O)[C@H](CS)NC(=O)CNC(=O)[C@H](CO)NC(=O)CNC(=O)[C@H](CO)NC(=O)CCCC[C@@H]1SC[C@@H]2NC(=O)N[C@@H]21)C(C)C)[C@@H](C)O)[C@@H](C)CC)C(=O)O [δ-41] (HELM PEPTIDE1{[O=C1N[C@H]2[C@H](CS[C@H]2CCCCC(=O)[*:2])N1].S.G.S.G.C.V.K.T.K.H.P.Q.L.H.I.E.S.K.I}$$$$V2.0; C-terminus assumed),reduced the FRET/CFP ratio,impaired the stimulation of CK1ε kinase activity,less pronounced

# More lines, now with the values behind:
Molecule,Binding to His-DDX3X^414-582 (ELISA) [1],"Tm shift / binding by FTS, in words [3]",effect of peptide on CK1ε kinase activity itself [5],binding to C-terminal helicase domain of DDX3X (BLItz) [6],effect of transfected peptide on FRET/CFP ratio (endogenous CK1 activity) [2],effect of peptide on DDX3X stimulation of CK1ε kinase activity [4],size of reduction of CK1 biosensor activity relative to CK1-specific small-molecule inhibitors or DDX3X siRNA [2]
δ-31: CK1δ-derived 15mer peptide (Biotin-SGSGAGEEVAIKLECVKTK),strongest binding,,,,,,
ε-241: CK1ε-derived 15mer peptide (Biotin-SGSGCKGYPSEFSTYLNFC; cysteine pairing not given here),strongest binding,,,,,,
δ-141: CK1δ-derived 15mer peptide (Biotin-SGSGKGNLVYIIDFGLAKK),strongest binding,,,,,,
δ-91: CK1δ-derived 15mer peptide (Biotin-SGSGDLFNFCSRKFSLKTV),strongest binding,,,,,,
δ-231: CK1δ-derived 15mer peptide (Biotin-SGSGKKMSTPIEVLCKGYP),to a lesser extent,,,,,,
CC[C@H](C)[C@H](NC(=O)[C@H](CCCCN)NC(=O)[C@H](CCCNC(=N)N)NC(=O)CNC(=O)[C@H](CC(C)C)NC(=O)[C@H](CCCNC(=N)N)NC(=O)[C@H](Cc1ccc(O)cc1)NC(=O)[C@H](CCCNC(=N)N)NC(=O)[C@H](CC(N)=O)NC(=O)CNC(=O)[C@@H](NC(=O)[C@H](CCCNC(=N)N)NC(=O)[C@H](CC(C)C)NC(=O)[C@H](CCC(=O)O)NC(=O)[C@H](CCSC)NC(=O)CNC(=O)[C@H](CO)NC(=O)CNC(=O)[C@H](CO)NC(=O)CCCC[C@@H]1SC[C@@H]2NC(=O)N[C@@H]21)C(C)C)C(=O)O [δ-1] (HELM PEPTIDE1{[O=C1N[C@H]2[C@H](CS[C@H]2CCCCC(=O)[*:2])N1].S.G.S.G.M.E.L.R.V.G.N.R.Y.R.L.G.R.K.I}$$$$V2.0; C-terminus assumed),to a lesser extent,clearly demonstrated,without affecting kinase activity itself,strongly interacted with δ-1,reduced the FRET/CFP ratio,impaired the stimulation of CK1ε kinase activity,less pronounced
